The values that follow come from patent US11459296B2, “Antibacterial compounds” (INFEX Therapeutics Limited, priority 2018, dated 2022).

A short description of series [1]: Cytotoxicity Assay (CellTiter-Glo). The note with it: human, Hep G2 cells (ATCC HB-8065); 24 h exposure, cell viability; read-out: HepG2 CC50. The format is cell-based. The protocol:
Cytotoxicity was evaluated in human Hep G2 cells (ATCC HB-8065) seeded at a density of 2×10^5 cells per well and incubated for 24 h at 37° C., 5% CO2. Cells were exposed to a doubling dilution series of test article. After 24 h exposure, the viability of the cells was determined using CellTiter-Glo® (Promega, Wis., USA) according to the manufacturer's instructions. Results are reported as the concentration of test article required to reduce cell viability by 50% (CC50).
(In general: ATP-based viability assays read luminescence as a measure of living cells.)

The target in a further series is NDM-1 (Klebsiella pneumoniae, UniProt C7C422). In words: metallo-β-lactamase inhibition assay (nitrocefin). The format is biochemical. The following applies: 1.5 nM NDM-1, 100 μM nitrocefin, 37° C., pH 7.5. The method, then: Compounds of the invention were tested in a metallo-β-lactamase inhibition assay to investigate mechanism of action of the compounds. Results are reported as the concentration of test article required to inhibit enzyme activity by 50% (IC50).
Sequence of NDM-1 (C7C422 whole entry, looked up, species assumed): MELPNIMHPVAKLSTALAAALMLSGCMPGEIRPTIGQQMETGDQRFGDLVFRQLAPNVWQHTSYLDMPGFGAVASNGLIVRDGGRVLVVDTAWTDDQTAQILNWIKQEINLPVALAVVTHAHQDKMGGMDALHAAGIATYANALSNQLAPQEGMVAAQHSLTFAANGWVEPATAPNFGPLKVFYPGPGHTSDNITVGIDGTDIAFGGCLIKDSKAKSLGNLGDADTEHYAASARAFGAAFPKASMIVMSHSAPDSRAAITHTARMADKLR
Inhibition of metallo-β-lactamase enzyme function was performed at 37° C. in buffer at pH 7.5 (50 mM HEPES, 150 mM NaCl, 0.1 mM ZnSO4, 20 μg/mL PEG4000), containing 1.5 nM NDM-1, 100 μM nitrocefin, and a range of concentrations of compound. Absorbance at 490 nm was measured using a BMG LABTECH FLUOstar Omega microplate reader every minute for 30 minutes. IC50S were determined from the average increase in OD per minute versus the Log 10 concentration of compound using GraphPad Prism.

pIC50: −log10 of the molar value. Structures can show the parent of a compound that is named as a salt.

The term CC50 denotes the concentration giving 50% cytotoxicity. In general, pIC50 refers to −log10 of the IC50, conventionally taken in molar units. A lower pIC50 goes with a high IC50.

As to `CC(=O)N1CCC(c2ccn(S(N)(=O)=O)c2C(=O)O)CC1` [Example 58, 3-(1-Acetylpiperidin-4-yl)-1-sulfamoyl-1H-pyrrole-2-carboxylic acid], in series [1], the 50% cytotoxic concentration (CC50) at 24 h is above 256 µg/mL. Also, the negative-log IC50 (pIC50) at NDM-1 is 5.88.

`NS(=O)(=O)n1ccc(-c2cccc(F)c2)c1C(=O)O` [Example 19, 3-(3-Fluorophenyl)-1-sulfamoyl-pyrrole-2-carboxylic acid]: the CC50 at 24 h in series [1] was above 256 µg/mL. The molecule also showed a negative-log IC50 (pIC50) on NDM-1 of 5.82.

In the case of `Nc1ccc(-c2ccn(S(N)(=O)=O)c2-c2nnn[nH]2)cn1` [Example 77, 3-(6-Aminopyridin-3-yl)-2-(1H-tetrazol-5-yl)-1H-pyrrole-1-sulfonamide], in series [1], the 50% cytotoxic concentration (CC50) at 24 h is above 256 µg/mL. The molecule further gave a pIC50 at NDM-1 of 6.30.

Turning to `Cc1ccc(-c2ccn(S(N)(=O)=O)c2C(=O)O)cc1` [Example 2, 3-(p-tolyl)-1-sulfamoyl-1H-pyrrole-2-carboxylic acid, sodium salt], the half-maximal cytotoxic concentration (CC50) at 24 h in series [1] is above 128 µg/mL. The same molecule gave a pIC50 against NDM-1 of 6.32.

For `NS(=O)(=O)n1ccc(-c2ccc(F)cc2)c1C(=O)O` [Example 18, 3-(4-Fluorophenyl)-1-sulfamoyl-pyrrole-2-carboxylic acid, sodium salt], the CC50 at 24 h in series [1] was above 256 µg/mL. The molecule also showed a negative logarithm of the IC50 (pIC50) on NDM-1 of 6.14.

As to `NCC(=O)N1CCC(c2ccn(S(N)(=O)=O)c2C(=O)O)CC1` [Example 62, 3-[1-(2-Aminoacetyl)-4-piperidyl]-1-sulfamoyl-pyrrole-2-carboxylic acid], in series [1], the CC50 at 24 h is above 256 µg/mL. The same molecule had a pIC50 at NDM-1 of 5.89.

With `NS(=O)(=O)n1ccc(-c2cccnc2)c1C(=O)O` [Example 8, 3-(Pyridin-3-yl)-1-sulfamoyl-1H-pyrrole-2-carboxylic acid, sodium salt], the 50% cytotoxic concentration (CC50) at 24 h in series [1] was above 256 µg/mL. The molecule also had a pIC50 against NDM-1 of 6.35.

Turning to `NS(=O)(=O)n1ccc(-c2ccc(C3CCNCC3)cc2)c1C(=O)O` [Example 34, 3-[4-(Piperidin-4-yl)phenyl]-1-sulfamoyl-1H-pyrrole-2-carboxylic acid hydrochloride], in series [1], the CC50 at 24 h is above 256 µg/mL. Also, the negative-log IC50 (pIC50) at NDM-1 was 6.82.

`Cn1cc(-c2ccn(S(N)(=O)=O)c2-c2nnn[nH]2)cn1` [Example 76, 3-(1-Methyl-1H-pyrazol-4-yl)-2-(1H-tetrazol-5-yl)-1H-pyrrole-1-sulfonamide]: the CC50 at 24 h in series [1] is above 256 µg/mL. Besides, at NDM-1, the negative logarithm of the IC50 (pIC50) was 5.93.

Take `Cn1c(N)nc2c(-c3ccn(S(N)(=O)=O)c3C(=O)O)cccc21` [Example 46, 3-(2-Amino-1-methyl-benzimidazol-4-yl)-1-sulfamoyl-pyrrole-2-carboxylic acid hydrochloride]: in series [1], the CC50 at 24 h is above 256 µg/mL. At NDM-1, the pIC50 was 5.55.

On to `NS(=O)(=O)n1ccc(-c2ccc(NS(=O)(=O)C3CC3)cc2)c1C(=O)O` [Example 23, 3-[4-(Cyclopropylsulfonylamino)phenyl]-1-sulfamoyl-pyrrole-2-carboxylic acid], for which the CC50 at 24 h in series [1] was above 256 µg/mL. This molecule showed a pIC50 against NDM-1 of 6.26.

Take `Nc1ccc(-c2ccn(S(N)(=O)=O)c2C(=O)O)cn1` [Example 1, 3-(6-Aminopyridin-3-yl)-1-sulfamoyl-1H-pyrrole-2-carboxylic acid]: the CC50 at 24 h in series [1] is above 256 µg/mL. The pIC50 on NDM-1 was 6.08.

Turning to `CS(=O)(=O)c1ccc(-c2ccn(S(N)(=O)=O)c2C(=O)O)cc1` [Example 5, 3-(4-Methanesulfonylphenyl)-1-sulfamoyl-1H-pyrrole-2-carboxylic acid, sodium salt], in series [1], the CC50 at 24 h was above 256 µg/mL. Moreover, the negative-log IC50 (pIC50) against NDM-1 was 6.35.

As to `Nc1cncc(-c2ccn(S(N)(=O)=O)c2C(=O)O)c1` [Example 22, 3-(5-Amino-3-pyridyl)-1-sulfamoyl-pyrrole-2-carboxylic acid], the CC50 at 24 h in series [1] was above 256 µg/mL. The molecule further showed a negative logarithm of the IC50 (pIC50) against NDM-1 of 5.68.

As to `NS(=O)(=O)n1ccc(-c2ccc(=O)[nH]c2)c1C(=O)O` [Example 52, 3-(6-Oxo-1,6-dihydropyridin-3-yl)-1-sulfamoyl-1H-pyrrole-2-carboxylic acid, Sodium Salt], the CC50 at 24 h in series [1] was above 256 µg/mL. In addition, at NDM-1, the pIC50 is 5.57.
